Measured values as given in patent US20200171166A1, “GEL COMPOSITION AND METHOD FOR PRODUCING GEL COMPOSITION” (Shimadzu Corporation, priority 2015, published 2020).

Tested on: three-dimensional cultured corneal epithelium model from human normal corneal epithelium cells (LabCyte CORNEA-MODEL)
Assay: Irritativeness test using a cornea model (WST-8 assay)
Type: cell-based
Conditions: exposure to 50 μL of test substance
Procedure: Prepared as test substances were hydrogels made under the same conditions as in the above preparation examples 3A to 3C (prepared from methanol gel, ethanol gel, and 2-butanol gel, respectively); solution in which 611 mg of NMP was added to 500 mg of PLGA; NMP; and distilled water (negative reference). A standard protocol was followed using a three-dimensional cultured corneal epithelium model from human normal corneal epithelium cells (J-TEC, LabCyte CORNEA-MODEL), and exposure tests were carried out on 50 μL of the test substances. Using a WST-8 assay kit (Dojin Chemical, product code: CK04), following the exposure test, a WST-8 assay was done on the samples, the OD value was measured with a plate reader (TECAN, Infinite 200 Pro), and the relative survival rate (proportion of live cells) was calculated for the negative object (distilled water).

CN1CCCC1=O [NMP, N-methyl pyrrolidone]
irritativeness toward the cornea: strong
